Test results published in patent publication US20260224589A1 (priority 2023, published 2026).
Where two headings read alike, the source gives them in different places.

Tested on: AsPC-1 cells
Assay: phospho-ERK HTRF assay in AsPC-1 cells, 4 h treatment
Format: cell-based
[1] = Homo sapiens, ASPC1, AsPC-1, 4H, Table 1a class column, read-out: pERK IC50 activity range (*)
[2] = Homo sapiens, ASPC1, AsPC-1, 4H, Table 1a, read-out: PERK IC50 (AsPC-1, 4H)
[3] = Homo sapiens, ASPC1, AsPC-1, 4h, Table 1b, read-out: PERK IC50 (AsPC-1, 4h)

Structure (SMILES)	IC50 [1] [nM]	IC50 [2] [nM]	IC50 [3] [nM]	other results
CN(C(=O)c1nn2c(c1Cl)CN(c1nc(OC[C@@]34CCCN3C[C@H](F)C4)nc3c1COC(c1c(C(F)(F)F)ccc(N)c1F)C3)CCC2)C1CC1 (stereo partly drawn) [compound 232, 5-(7-(3-amino-2-fluoro-6-(trifluoromethyl)phenyl)-2-(((2R,7aS)-2-fluorotetrahydro-1H-pyrrolizin-7a(5H)-yl)methoxy)-7,8-dihydro-5H-pyrano[4,3-d]pyrimidin-4-yl)-3-chloro-N-cyclopropyl-N-methyl-5,6,7,8-tetrahydro-4H-pyrazolo[1,5-a][1,4]diazepine-2-carboxamide]	101 to 500	247		IC50 (Homo sapiens, ASPC1, AsPC-1, 4H, individual (R) diastereomer of Ex. 232, read-out: PERK IC50 (AsPC-1, 4H) nM, individual diastereomer (R)): > 1000 nM; IC50 (Homo sapiens, ASPC1, AsPC-1, 4H, individual (S) diastereomer of Ex. 232, read-out: PERK IC50 (AsPC-1, 4H) nM, individual diastereomer (S)): 166 nM
CN(C)C(=O)c1nn2c(c1Cl)CN(c1nc(OC[C@@]34CCCN3C[C@H](F)C4)nc3c1CO[C@H](c1c(C(F)(F)F)ccc(I)c1F)C3)CCC2 [compound 219]	> 500	896		
CC#Cc1cc(N)c(F)c([C@@H]2Cc3nc(OC[C@@]45CCCN4C[C@H](F)C5)nc(N4CCCn5nc(C(=O)N(C)C)c(Cl)c5C4)c3CO2)c1C(F)(F)F [compound 435]			< 10	
CON(C)C(=O)c1nn2c(c1Cl)CN(c1nc(OC[C@@]34CCCN3C[C@H](F)C4)nc3c1COC(c1c(F)c(N)cc(C)c1C(F)(F)F)C3)CCC2 (stereo partly drawn) [compound 464, 5-(2-{[(2R,7aS)-2-fluoro-hexahydropyrrolizin-7a-yl]methoxy}-7-[3-amino-2-fluoro-5-methyl-6-(trifluoromethyl)phenyl]-5H,7H,8H-pyrano[4,3-d]pyrimidin-4-yl)-3-chloro-N-methoxy-N-methyl-4H,6H,7H,8H-pyrazolo[1,5-a][1,4]diazepine-2-carboxamide]	10 to 30			
Cc1c(C(=O)N(C)C)nn2c1CN(c1nc(OC[C@@]34CCCN3CC(=C(F)F)C4)nc3c1CO[C@H](c1cc(N)cc(F)c1C(F)(F)F)C3)CCC2 [compound 407]	10 to 30			
CN(C)C(=O)c1nn2c(c1Cl)CN(c1nc(OC[C@@]34CCCN3C[C@H](F)C4)nc3c1COC(c1cc(N)ccc1C(F)(F)F)C3)CCC2 (stereo partly drawn) [compound 230, 5-(7-(5-amino-2-(trifluoromethyl)phenyl)-2-(((2R,7aS)-2-fluorotetrahydro-1H-pyrrolizin-7a(5H)-yl)methoxy)-7,8-dihydro-5H-pyrano[4,3-d]pyrimidin-4-yl)-3-chloro-N,N-dimethyl-5,6,7,8-tetrahydro-4H-pyrazolo[1,5-a][1,4]diazepine-2-carboxamide]	31 to 100	37		
Nc1ccc(C(F)(F)F)c(C2Cc3nc(OC[C@@]45CCCN4C[C@H](F)C5)nc(N4CCCn5nc(C(=O)N6CCOCC6)c(Cl)c5C4)c3CO2)c1F (some centres unmarked) [compound 227]	31 to 100	97		
CN1CCOc2c(nn3c2CN(c2nc(OC[C@@]45CCCN4C[C@H](F)C5)nc4c2CO[C@@H](c2c(C(F)(F)F)ccc(N)c2F)C4)CCC3)C1=O [212b]	> 500	> 10000		
Cc1cc(N)cc(C2Cc3nc(OC[C@@]45CCCN4C/C(=C\F)C5)nc(N4CCCn5nc(C(=O)N(C)C)c(Cl)c5C4)c3CO2)c1C(F)(F)F (some centres unmarked) [compound 240]			< 10	
CN(C)C(=O)c1nn2c(c1Cl)CN(c1nc(OC[C@@]34CCCN3C[C@H](F)C4)nc3c1COC(c1cc(N)cc(F)c1C(F)(F)F)C3)CCC2 (some centres unmarked) [compound 237]	10 to 30	20.4		
CCN(C)C(=O)c1nn2c(c1Cl)CN(c1nc(OC[C@@]34CCCN3C[C@H](F)C4)nc3c1CO[C@H](c1c(F)c(N)cc(Cl)c1C(F)(F)F)C3)CCC2 [compound 433]			< 10	
CON(C)C(=O)c1nn2c(c1Cl)CN(c1nc(OC[C@@]34CCCN3C[C@H](F)C4)nc3c1CO[C@H](c1cc(N)cc(Cl)c1C(F)(F)F)C3)CCC2 [compound 448]			< 10	
CC#Cc1cc(N)cc([C@@H]2Cc3nc(OC[C@@]45CCCN4C[C@H](F)C5)nc(N4CCCn5nc(C(=O)N(C)C)c(C)c5C4)c3CO2)c1C(F)(F)F [compound 419]			< 10	
C[C@@]1(O)COCCN(c2nc(OC[C@]34CCCN3C[C@@H](C=C(F)F)C4)nc3c2CO[C@H](c2cc(N)cc(Cl)c2C(F)(F)F)C3)C1 [compound 457]			< 10	
CN(C)C(=N)c1nn2c(c1Cl)CN(c1nc(OC[C@@]34CCCN3C[C@H](F)C4)nc3c1CO[C@H](c1c(C(F)(F)F)ccc(N)c1F)C3)CCC2 [compound 221]	> 500	> 10000		
CN(C)C(=O)n1cc2c(n1)CCCN(c1nc(OC[C@@]34CCCN3C[C@H](F)C4)nc3c1COC(c1c(C(F)(F)F)ccc(N)c1F)C3)C2 (some centres unmarked) [compound 228]	> 500	3070		
CN(C)C(=O)c1nn2c(c1Cl)CN(c1nc(OC[C@@]34CCCN3C/C(=C\F)C4)nc3c1CO[C@H](c1cc(N)cc(Cl)c1C(F)(F)F)C3)CCC2 [compound 235, 5-((S)-7-(5-amino-3-chloro-2-(trifluoromethyl)phenyl)-2-(((S,Z)-2-(fluoromethylene)tetrahydro-1H-pyrrolizin-7a(5H)-yl)methoxy)-7,8-dihydro-5H-pyrano[4,3-d]pyrimidin-4-yl)-3-chloro-N,N-dimethyl-5,6,7,8-tetrahydro-4H-pyrazolo[1,5-a][1,4]diazepine-2-carboxamide]			< 10	
CN(C)C(=O)c1nn2c(c1Cl)CN(c1nc(OC[C@@]34CCCN3C[C@H](F)C4)nc3c1COC(c1nc(N)ccc1C(F)(F)F)C3)CCC2 (stereo partly drawn) [compound 217, 5-(7-(6-amino-3-(trifluoromethyl)pyridin-2-yl)-2-(((2R,7aS)-2-fluorotetrahydro-1H-pyrrolizin-7a(5H)-yl)methoxy)-7,8-dihydro-5H-pyrano[4,3-d]pyrimidin-4-yl)-3-chloro-N,N-dimethyl-5,6,7,8-tetrahydro-4H-pyrazolo[1,5-a][1,4]diazepine-2-carboxamide]	101 to 500	312		
CON(C)C(=O)c1nn2c(c1Cl)CN(c1nc(OC[C@@]34CCCN3C[C@H](F)C4)nc3c1COC(c1cc(N)cc(Cl)c1C(F)(F)F)C3)CCC2 (some centres unmarked) [compound 452]	10 to 30			
Nc1ccc(C(F)(F)F)c(C2Cc3nc(OC[C@@]45CCCN4C[C@H](F)C5)nc(N4CCNCC(=O)C4)c3CO2)c1F (some centres unmarked) [compound 210]				IC50 (AsPC-1, 4H, Table 1a class column, read-out: pERK IC50 activity range (*)): > 500 nM; IC50 (AsPC-1, 4H, Table 1a, read-out: PERK IC50 (AsPC-1, 4H)): > 10000 nM
Cc1c(C(=O)N(C)C)nn2c1CN(c1nc(OC[C@@]34CCCN3C/C(=C\F)C4)nc3c1CO[C@H](c1c(F)c(N)cc(Cl)c1Cl)C3)CCC2 [compound 442]			< 10	
CN(C)C(=S)c1nn2c(c1Cl)CN(c1nc(OC[C@@]34CCCN3C[C@H](F)C4)nc3c1CO[C@H](c1c(C(F)(F)F)ccc(N)c1F)C3)CCC2 [compound 223]	101 to 500	147		
Cc1c(C(=O)N(C)C)nn2c1CN(c1nc(OC[C@]34CCCN3C[C@@H](C=C(F)F)C4)nc3c1CO[C@H](c1cc(N)cc(Cl)c1C(F)(F)F)C3)CCC2 [compound 447]			< 10	
Cc1cc(N)cc(C2Cc3nc(OC[C@@]45CCCN4CC(=C(F)F)C5)nc(N4CCCn5nc(C(=O)N(C)C)c(Cl)c5C4)c3CO2)c1C(F)(F)F (some centres unmarked) [compound 241]	31 to 100	58.9		
Nc1ccc(C(F)(F)F)c(C2Cc3nc(OC[C@@]45CCCN4C[C@H](F)C5)nc(N4CCNC5CS(=O)(=O)C[C@H]54)c3CO2)c1F (some centres unmarked) [compound 207]	> 500	> 10000		
CC#Cc1cc(N)cc([C@@H]2Cc3nc(OC[C@@]45CCCN4C/C(=C\F)C5)nc(N4CCCn5nc(C(=O)N6CCCC6)c(Cl)c5C4)c3CO2)c1C(F)(F)F [compound 430]			< 10	
